One assay concerns the target T1, Caspase-3 (Homo sapiens, UniProt P42574).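 Also: Dose-response selectivity test against caspase-3 for candidate inhibitors of sentrin-specific proteases (SENPs).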
T1 sequence (P42574 whole entry): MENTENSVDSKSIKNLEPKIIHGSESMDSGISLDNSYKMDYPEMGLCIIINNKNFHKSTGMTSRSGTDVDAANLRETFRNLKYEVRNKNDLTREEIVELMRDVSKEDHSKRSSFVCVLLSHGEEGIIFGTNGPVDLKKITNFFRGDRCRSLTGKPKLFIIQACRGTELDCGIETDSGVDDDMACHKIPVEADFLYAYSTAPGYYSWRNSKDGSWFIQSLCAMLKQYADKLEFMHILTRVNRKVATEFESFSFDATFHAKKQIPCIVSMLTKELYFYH
It is filed as functional.

The target of assay [1] is T2, Sentrin-specific protease 7 (Homo sapiens, UniProt Q9BQF6).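 Also: Luminescence-based dose-response confirmation of ultra-high-throughput screening hits, measuring inhibition of SENP7.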
T2 sequence (Q9BQF6 whole entry): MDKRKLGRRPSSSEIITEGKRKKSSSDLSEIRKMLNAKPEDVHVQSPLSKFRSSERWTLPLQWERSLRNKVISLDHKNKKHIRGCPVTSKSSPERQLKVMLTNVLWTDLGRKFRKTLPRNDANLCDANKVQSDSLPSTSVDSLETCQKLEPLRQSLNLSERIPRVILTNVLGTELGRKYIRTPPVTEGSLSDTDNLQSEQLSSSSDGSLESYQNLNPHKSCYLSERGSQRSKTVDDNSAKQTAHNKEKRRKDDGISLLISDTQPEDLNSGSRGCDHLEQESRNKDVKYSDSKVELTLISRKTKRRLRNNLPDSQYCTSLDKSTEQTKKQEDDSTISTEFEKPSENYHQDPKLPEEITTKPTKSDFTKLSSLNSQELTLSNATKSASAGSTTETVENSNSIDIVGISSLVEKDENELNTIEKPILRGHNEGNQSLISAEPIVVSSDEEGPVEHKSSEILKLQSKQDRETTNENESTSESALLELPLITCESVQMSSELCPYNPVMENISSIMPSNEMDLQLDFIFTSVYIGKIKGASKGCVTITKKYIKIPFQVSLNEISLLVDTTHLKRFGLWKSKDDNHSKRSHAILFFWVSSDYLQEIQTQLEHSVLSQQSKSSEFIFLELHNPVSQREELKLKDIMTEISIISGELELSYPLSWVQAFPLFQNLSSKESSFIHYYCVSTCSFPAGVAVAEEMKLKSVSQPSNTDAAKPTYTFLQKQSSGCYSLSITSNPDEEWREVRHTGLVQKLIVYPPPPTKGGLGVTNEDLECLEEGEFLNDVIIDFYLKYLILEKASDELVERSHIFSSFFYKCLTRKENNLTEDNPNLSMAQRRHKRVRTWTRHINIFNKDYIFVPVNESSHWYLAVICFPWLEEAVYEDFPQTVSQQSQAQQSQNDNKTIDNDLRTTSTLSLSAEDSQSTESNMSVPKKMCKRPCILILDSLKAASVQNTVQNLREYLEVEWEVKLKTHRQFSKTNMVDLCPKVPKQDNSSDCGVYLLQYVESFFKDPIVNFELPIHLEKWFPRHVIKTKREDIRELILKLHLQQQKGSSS
The format is functional.

Assay [2] has as its target T3, Sentrin-specific protease 6 (Homo sapiens, UniProt Q9GZR1).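 Also: Luminescence-based dose-response confirmatory assay of SENP6 inhibition, following up an ultra-high-throughput screen.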
T3 sequence (Q9GZR1 whole entry): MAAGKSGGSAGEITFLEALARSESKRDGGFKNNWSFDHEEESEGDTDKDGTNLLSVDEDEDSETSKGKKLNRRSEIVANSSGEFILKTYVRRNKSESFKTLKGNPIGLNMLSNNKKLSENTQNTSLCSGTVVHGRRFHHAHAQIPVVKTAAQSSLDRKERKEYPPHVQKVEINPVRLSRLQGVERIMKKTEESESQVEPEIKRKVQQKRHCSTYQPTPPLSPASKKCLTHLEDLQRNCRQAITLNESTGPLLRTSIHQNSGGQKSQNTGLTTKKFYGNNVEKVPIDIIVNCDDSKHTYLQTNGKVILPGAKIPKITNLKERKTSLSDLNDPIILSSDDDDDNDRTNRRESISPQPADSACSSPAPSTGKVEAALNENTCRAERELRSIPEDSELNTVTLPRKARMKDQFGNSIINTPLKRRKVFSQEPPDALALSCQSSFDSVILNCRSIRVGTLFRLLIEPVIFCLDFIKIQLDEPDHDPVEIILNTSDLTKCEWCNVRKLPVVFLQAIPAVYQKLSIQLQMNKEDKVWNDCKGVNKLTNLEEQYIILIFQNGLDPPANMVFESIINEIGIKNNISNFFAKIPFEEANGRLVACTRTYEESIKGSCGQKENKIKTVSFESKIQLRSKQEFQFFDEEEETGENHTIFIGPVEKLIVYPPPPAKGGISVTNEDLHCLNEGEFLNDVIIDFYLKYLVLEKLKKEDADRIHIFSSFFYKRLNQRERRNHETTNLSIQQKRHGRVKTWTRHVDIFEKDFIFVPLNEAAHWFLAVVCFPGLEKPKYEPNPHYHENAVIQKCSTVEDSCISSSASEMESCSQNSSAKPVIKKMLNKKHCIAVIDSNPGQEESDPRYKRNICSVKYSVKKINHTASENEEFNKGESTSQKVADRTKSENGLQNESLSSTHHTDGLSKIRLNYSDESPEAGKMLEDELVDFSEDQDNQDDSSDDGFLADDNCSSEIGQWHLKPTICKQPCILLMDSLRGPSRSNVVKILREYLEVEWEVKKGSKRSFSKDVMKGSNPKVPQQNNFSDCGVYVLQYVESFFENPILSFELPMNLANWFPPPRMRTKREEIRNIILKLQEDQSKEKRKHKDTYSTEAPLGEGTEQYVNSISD
It is filed as functional.

For the next assay, the target named is Cytochrome P450 2C9 (Homo sapiens, UniProt P11712).
Cytochrome P450 2C9, sequence (P11712 whole entry): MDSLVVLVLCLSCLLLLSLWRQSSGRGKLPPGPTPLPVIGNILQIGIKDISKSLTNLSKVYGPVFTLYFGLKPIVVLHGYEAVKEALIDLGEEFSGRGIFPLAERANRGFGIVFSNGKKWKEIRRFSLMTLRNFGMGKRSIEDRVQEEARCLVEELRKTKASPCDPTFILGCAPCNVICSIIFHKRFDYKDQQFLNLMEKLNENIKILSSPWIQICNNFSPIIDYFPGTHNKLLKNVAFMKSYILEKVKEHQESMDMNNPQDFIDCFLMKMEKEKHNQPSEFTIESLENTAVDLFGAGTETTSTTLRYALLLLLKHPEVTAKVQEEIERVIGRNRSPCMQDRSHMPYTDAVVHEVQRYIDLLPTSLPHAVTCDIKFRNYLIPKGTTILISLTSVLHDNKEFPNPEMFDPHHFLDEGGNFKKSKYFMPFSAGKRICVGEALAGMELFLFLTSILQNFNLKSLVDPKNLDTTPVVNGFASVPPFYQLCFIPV
For assay [3], the target named is T4, Endoribonuclease toxin MazF (Escherichia coli K-12, UniProt P0AE70).
T4 sequence (P0AE70 whole entry): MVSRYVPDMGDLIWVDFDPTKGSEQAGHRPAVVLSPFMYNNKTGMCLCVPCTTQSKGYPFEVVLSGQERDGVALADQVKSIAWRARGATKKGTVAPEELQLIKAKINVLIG
The experiment in a line: substrate-only fluorescence increase artefacts – biochemical, single-stranded RNase substrate, counter-screen for MazEF activator project, dose response (AID 588502). The format is functional.

Assay [4] deals with T5, Sentrin-specific protease 8 (Homo sapiens, UniProt Q96LD8).
T5 sequence (Q96LD8 whole entry): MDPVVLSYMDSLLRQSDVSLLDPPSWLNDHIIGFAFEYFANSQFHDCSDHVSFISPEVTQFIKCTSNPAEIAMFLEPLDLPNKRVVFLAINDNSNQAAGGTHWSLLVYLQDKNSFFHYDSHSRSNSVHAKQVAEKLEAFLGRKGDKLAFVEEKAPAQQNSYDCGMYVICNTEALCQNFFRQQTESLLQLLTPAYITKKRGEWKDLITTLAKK
It is filed as functional.

A further assay has as its system A-375. The experiment in a line: MITF: Counter assay: A375 proliferation Measured in Cell-Based System Using Plate Reader - 2084-03_Inhibitor_Dose_DryPowder_Activity. [Related pubchem assays (depositor defined):AID488944]. The conditions noted are these: Homo sapiens. It is filed as functional.

Molecules are shown by their SMILES. Calls of active or inactive are those of the source.

`CC(C)=CCC1=C(OCC(=O)O)C(=O)c2ccccc2C1=O`: the IC50 on Caspase-3 is 15 µM (active); in assay [1], 3.97 µM (active); in assay [2] it was 2.53 µM (active). In addition, the AC50 at Cytochrome P450 2C9 was 3.98 µM (inconclusive).
For `Cc1[nH][nH]c(=O)c1C(c1c(C)[nH][nH]c1=O)c1cn(Cc2ccccc2Cl)c2ccccc12`, the EC50 in assay [3] was > 99 µM (inactive). Besides, the IC50 in assay [4] is 4.8 µM (active).
As for `Cc1cccc(NC2=C(NC(=O)c3ccccc3)C(=O)c3ccccc3C2=O)c1`, the AC50 in the assay with A-375 was 34 µM (active).

For the origin of these results see ChEMBL document CHEMBL1201862, “PubChem BioAssay data set” (2004).
